# Experimental data from patent US20130309380A1, “METHODS FOR PRESERVING FRESH PRODUCE” (NatureSeal, Inc., priority 2003, published 2013).
# How the values were obtained:
# Red Delicious apples = assay: Evaluation of sliced Red Delicious apples (Examples 14 and 15, scores)
# Method: The texture, flavor, and moistness of the fruit were evaluated by tasting fruit samples. The color and/or appearance was also evaluated by visual inspection. […] Then the apple slices were dipped for 1 minute into the following solutions: 3% ascorbic acid and 0.8% NH4Cl. For comparision, untreated slices were used as well as apple slices treated with 3% ascorbic acid or 2% ascorbic acid. The apples were removed, drained for 1-2 minutes, sealed in 2 mil, polyethylene bags, and stored at 2-5° C. Red Delicious apples were preserved with the fresh produce preservative as in Example 14a, except that the preservative solution contained 3.0% ascorbic acid and 0.8% CuSO4.
# Bartlett pears = assay: Hardness of sliced Bartlett pears
# Method: The firmness or hardness of the fruit is the force required for a probe to penetrate the fruit a given distance into the fruit. The firmness is determined using a Quality and Test System 25 and TA 40 probe from Stevens Company. The TA 40 probe a black acetate, 4.5 mm diameter, 20 mm long rod probe having a flat end. The following settings were employed in the QTS system: the test type is a compression test of one cycle, 0 second hold time, 0 second recovery, 5 g trigger point, 30 mm/min test speed, target unit distance, and a target value of 3 mm. The apple pieces were 1 cm thick.
# (§1) Whole Red Delicious apples were rinsed with tap water, sanitized with a sodium hypochlorite solution containing 100 ppm chlorine, then cored and sliced. The apple slices were immersed in water for 0.5 to 2 minutes. Then the apple slices were dipped into produce preservative solution containing 4% ascorbic acid and 1.59% K2CO3 having a pH 5.69 for 1 minute. The slices were removed from the solution and drained for 1-2 minutes, sealed in polyethylene bags, and stored at 2-5° C. For controls, sliced apples either not treated or were dipped into either 4% ascorbic acid with 0.66% NaOH to adjust the pH to 4.45. For comparison, sliced apples were dipped into a solution containing 4% ascorbic acid and 1.22% Na2CO3 and having a pH of 5.58.
# Bartlett pears were preserved with the fresh produce preservative as in Example 1a, with preservative solution that contained 4% ascorbic acid and 1.59% K2-CO3. For comparison, pears were treated with a comparative solution that contained 4% ascorbic acid and 1.22% Na2CO3.
# Hass avocadoes = assay: Evaluation of sliced Hass avocadoes preserved with fresh produce preservative (scores)
# Method: The texture, flavor, and moistness of the fruit were evaluated by tasting fruit samples. The color and/or appearance was also evaluated by visual inspection. The color, texture, moistness and flavor were then evaluated according to a scale of either 1 to 10, with 10 being the value assigned to a freshly cut piece of comparative fruit or vegetable. A value of less than 7 is not acceptable.
# as §1
# Hass avocadoes were preserved with the fresh produce preservative as in Example 1a, except that the preservative solution contained 9.3% ascorbic acid and 5.7% MnCl2.4H2O.
# Sliced Hass avocadoes were preserved with the fresh produce preservative as in Example la, except that the preservative solution contained 6.5% ascorbic acid and 3.5% potassium chloride. For control, a 7% ascorbic acid solution was used.
# Bramley apples = assay: Water released by sliced Bramley apples
# Method: The firmness of the produce in Example 11a were evaluated by bending produce samples. Appearance was evaluated by visual inspection. The moisture was evaluated by measuring the amount of water the produce released.
# Whole Bramley apples free from blemishes or bruises, were rinsed with water, sanitized with a sodium hypochlorite solution having 100 parts per million available chlorine, for two minutes, then peeled, cored, and sliced. The sliced apples were dipped into a fresh produce preservative solution that contained 5.12% strontium ascorbate; the fresh produce preservative solution contained 4.12% ascorbic acid and 1.79% […], for about 30 to 60 seconds. The apples were then drained in a colander for one minute. The apple slices and the colander were placed in 500 micron plastic bags from SunSet Packaging, stored at 4° C. and evaluated several times over a 15 day period. Water which collected in the plastic bag was removed and weighed.
# For comparison, similarly prepared apple slices were placed in one of several solutions that contained either: 4.3% ascorbic acid and 1.13% hydrated MgCO3, specifically 4MgCO3.Mg(OH)25H2O or a 5.0% w/w aqueous solution of calcium ascorbate dihydrate, having a pH of 7.2; or a 5.3% w/w solution, of 4.12% ascorbic acid and 1.17% calcium carbonate,; or 6% ascorbic acid having a pH of 2.3; or 48 g ascorbic acid, 48 g citric acid, 16 g CaCl2 and 48 g NaCl in 800 g water, with a pH of 1.2; or 6% w/w citric acid and 6% w/w ascorbic acid; or 4.64% sodium ascorbate having 4.13% ascorbic acid and 1.18% NaCo3. […]
structure (smiles),measurement,setting,value
"O=C1O[C@H]([C@@H](O)CO)C(O)=C1O [Ascorbic Acid, ascorbic acid]",color/appearance score,"Red Delicious apples; 1 hour, scale to 10 (Table 15)",10
same,color/appearance score,"Red Delicious apples; 1 hour, scale to 10 (Table 16)",10
same,color/appearance score,"Red Delicious apples; 24 hours, scale to 10 (Table 15), listed as 2% Ascorbic Acid Control, 2% Ascorbic Acid control dip",5.33
same,color/appearance score,"Red Delicious apples; 24 hours, scale to 10 (Table 15), listed as 3% Ascorbic Acid Control, 3% Ascorbic Acid control dip",6
same,color/appearance score,"Red Delicious apples; 24 hours, scale to 10 (Table 16), listed as 2% Ascorbic Acid Control, 2% Ascorbic Acid control",5
same,color/appearance score,"Red Delicious apples; 24 hours, scale to 10 (Table 16), listed as 3% Ascorbic Acid Control, 3% Ascorbic Acid control",6
same,color/appearance score,"Red Delicious apples; Day 3, scale to 10 (Table 15), listed as 2% Ascorbic Acid Control, 2% Ascorbic Acid control dip",5
same,color/appearance score,"Red Delicious apples; Day 3, scale to 10 (Table 15), listed as 3% Ascorbic Acid Control, 3% Ascorbic Acid control dip",6
same,color/appearance score,"Red Delicious apples; Day 3, scale to 10 (Table 16), listed as 2% Ascorbic Acid Control, 2% Ascorbic Acid control",5
same,color/appearance score,"Red Delicious apples; Day 3, scale to 10 (Table 16), listed as 3% Ascorbic Acid Control, 3% Ascorbic Acid control",6
same,color/appearance score,"Red Delicious apples; Day 4, scale to 10 (Table 15), listed as 2% Ascorbic Acid Control, 2% Ascorbic Acid control dip",6
same,color/appearance score,"Red Delicious apples; Day 4, scale to 10 (Table 15), listed as 3% Ascorbic Acid Control, 3% Ascorbic Acid control dip",4
same,color/appearance score,"Red Delicious apples; Day 5, scale to 10 (Table 15), listed as 2% Ascorbic Acid Control, 2% Ascorbic Acid control dip",6
same,color/appearance score,"Red Delicious apples; Day 5, scale to 10 (Table 15), listed as 3% Ascorbic Acid Control, 3% Ascorbic Acid control dip",4
same,color/appearance score,"Red Delicious apples; Day 6, scale to 10 (Table 15), listed as 2% Ascorbic Acid Control, 2% Ascorbic Acid control dip",6
same,color/appearance score,"Red Delicious apples; Day 6, scale to 10 (Table 15), listed as 3% Ascorbic Acid Control, 3% Ascorbic Acid control dip",4
same,Hardness,Bartlett pears; 0 hour,2215 g
same,Hardness,Bartlett pears; 1 week,315 g
same,Hardness,Bartlett pears; 2 weeks,79 g
same,color/appearance score,"Hass avocadoes; 1 day, scale to 10 (Table 6), listed as 6% Ascorbic Acid control, 6% Ascorbic Acid control",6
same,color/appearance score,"Hass avocadoes; 1 day, scale to 10 (Table 6), listed as 7% Ascorbic Acid control, 7% Ascorbic Acid control",7
same,color/appearance score,"Hass avocadoes; 1 day, scale to 10 (Table 6), listed as 8% Ascorbic Acid control, 8% Ascorbic Acid control",8.5
same,color/appearance score,"Hass avocadoes; 1 day, scale to 10 (Table 7)",7
same,color/appearance score,"Hass avocadoes; 2 days, scale to 10 (Table 7)",6
same,color/appearance score,"Hass avocadoes; 4 days, scale to 10 (Table 6)",6
same,Water Released,Bramley apples; 4 hr at 4° C.,6.78 g
same,Water Released,Bramley apples; 28 hr at 4° C.,5.34 g
same,Water Released,Bramley apples; 52 hr at 4° C.,4.19 g
same,Water Released,Bramley apples; 94 hr at 4° C.,2.94 g
same,Water Released,Bramley apples; 191 hr at 4° C.,2.63 g
